Experimental data from the supplement of paper PMC10307832.

Tests used:
Assay in all cases: relative viability (nuclei count vs DMSO), 5 days (fraction); higher = more cells survive
ABC-1 = tested on: ABC-1
Procedure, shortened: (§1)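 Relative viability divides the nuclei count in treated wells by that in vehicle wells. Lung cancer cell lines were seeded in 1536-well plates, dosed by pin tool the next day, and fixed and stained after 5 days in one step with final 0.05% Triton X-100, 1% formaldehyde and 1 ug/ml Hoechst. Dosing was a single drug or a fixed anchor-drug dose plus five library-drug doses (not always all listed) in √10 steps, and values are medians of duplicate plates imaged at 4×.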

NCI-H838 = tested on: NCI-H838
Procedure, shortened: as §1

NCI-H460 = tested on: NCI-H460
Procedure, shortened: as §1

PC-14 = tested on: PC-14
Procedure, shortened: as §1

HCC-15 = tested on: HCC-15
Procedure, shortened: as §1

NCI-H2085 = tested on: NCI-H2085
Procedure, shortened: as §1

NCI-H1651 = tested on: NCI-H1651
Procedure, shortened: as §1

NCI-H1993 = tested on: NCI-H1993
Procedure, shortened: as §1

NCI-H358 = tested on: NCI-H358
Procedure, shortened: as §1

NCI-H1915 = tested on: NCI-H1915
Procedure, shortened: as §1

EPLC-272H = tested on: EPLC-272H
Procedure, shortened: as §1

LC-2-ad = tested on: LC-2-ad
Procedure, shortened: as §1

NCI-H2126 = tested on: NCI-H2126
Procedure, shortened: as §1

HARA = tested on: HARA
Procedure, shortened: as §1

NCI-H650 = tested on: NCI-H650
Procedure, shortened: as §1

LU99A = tested on: LU99A
Procedure, shortened: as §1

NCI-H522 = tested on: NCI-H522
Procedure, shortened: as §1

NCI-H2347 = tested on: NCI-H2347
Procedure, shortened: as §1

HCC-78 = tested on: HCC-78
Procedure, shortened: as §1

NCI-H2342 = tested on: NCI-H2342
Procedure, shortened: as §1

Work on `Clc1ccc(Nc2nnc(Cc3ccncc3)c3ccccc23)cc1` [Vatalanib] + NC(=O)Nc1cc(-c2cccc(F)c2)sc1C(=O)N[C@H]1CCCNC1 [AZD7762] (partner 0.2 µM) yielded a relative viability (ABC-1; first compound 0.04 µM) of 0.7, a relative viability (ABC-1; first compound 0.4 µM) of 0.744 and a relative viability (ABC-1; first compound 1.265 µM) of 0.853. It also gave a relative viability (ABC-1; first compound 4 µM) of 0.719, a relative viability (NCI-H838; first compound 0.04 µM) of 1.07 and a relative viability (NCI-H838; first compound 0.1265 µM) of 0.882. The relative viability (NCI-H838; first compound 0.4 µM) was 1, the relative viability (NCI-H838; first compound 1.265 µM) was 0.867 and the relative viability (NCI-H838; first compound 4 µM) was 0.87. It also gave a relative viability (NCI-H460; first compound 0.04 µM) of 0.589, a relative viability (NCI-H460; first compound 0.1265 µM) of 0.646 and a relative viability (NCI-H460; first compound 1.265 µM) of 0.477. It also gave a relative viability (NCI-H460; first compound 4 µM) of 0.596, a relative viability (PC-14; first compound 0.04 µM) of 0.31 and a relative viability (PC-14; first compound 0.1265 µM) of 0.332. The relative viability (PC-14; first compound 1.265 µM) was 0.26, the relative viability (PC-14; first compound 4 µM) was 0.318 and the relative viability (HCC-15; first compound 0.04 µM) was 1.18. For the same compound, the relative viability (HCC-15; first compound 0.1265 µM) was 1.23, the relative viability (HCC-15; first compound 0.4 µM) was 1.13 and the relative viability (HCC-15; first compound 1.265 µM) was 1.32. For the same compound, the relative viability (HCC-15; first compound 4 µM) was 1.54, the relative viability (NCI-H2085; first compound 0.04 µM) was 1.12 and the relative viability (NCI-H2085; first compound 0.1265 µM) was 1. For the same compound, the relative viability (NCI-H2085; first compound 0.4 µM) was 0.998, the relative viability (NCI-H2085; first compound 1.265 µM) was 0.862 and the relative viability (NCI-H2085; first compound 4 µM) was 0.928. The relative viability (NCI-H1651; first compound 0.04 µM) was 0.441, the relative viability (NCI-H1651; first compound 0.1265 µM) was 0.471 and the relative viability (NCI-H1651; first compound 0.4 µM) was 0.46. The relative viability (NCI-H1651; first compound 1.265 µM) was 0.359, the relative viability (NCI-H1651; first compound 4 µM) was 0.4 and the relative viability (NCI-H1993; first compound 0.04 µM) was 0.4. It also gave a relative viability (NCI-H1993; first compound 0.1265 µM) of 0.934, a relative viability (NCI-H1993; first compound 0.4 µM) of 0.728 and a relative viability (NCI-H1993; first compound 1.265 µM) of 0.713. For the same compound, the relative viability (NCI-H1993; first compound 4 µM) was 0.737, the relative viability (NCI-H358; first compound 0.04 µM) was 0.694 and the relative viability (NCI-H358; first compound 0.1265 µM) was 0.441. The relative viability (NCI-H358; first compound 0.4 µM) was 0.57, the relative viability (NCI-H358; first compound 1.265 µM) was 0.446 and the relative viability (NCI-H358; first compound 4 µM) was 0.481. It also gave a relative viability (NCI-H1915; first compound 0.04 µM) of 0.717, a relative viability (NCI-H1915; first compound 0.1265 µM) of 0.665 and a relative viability (NCI-H1915; first compound 0.4 µM) of 0.716. For the same compound, the relative viability (NCI-H1915; first compound 1.265 µM) was 0.653, the relative viability (NCI-H1915; first compound 4 µM) was 0.661 and the relative viability (EPLC-272H; first compound 0.04 µM) was 0.0728. For the same compound, the relative viability (EPLC-272H; first compound 0.1265 µM) was 0.167, the relative viability (EPLC-272H; first compound 0.4 µM) was 0.212 and the relative viability (EPLC-272H; first compound 1.265 µM) was 0.216. The relative viability (EPLC-272H; first compound 4 µM) was 0.207, the relative viability (LC-2-ad; first compound 0.04 µM) was 0.897 and the relative viability (LC-2-ad; first compound 0.1265 µM) was 0.762. For the same compound, the relative viability (LC-2-ad; first compound 0.4 µM) was 0.92, the relative viability (LC-2-ad; first compound 1.265 µM) was 0.785 and the relative viability (LC-2-ad; first compound 4 µM) was 0.817. It also gave a relative viability (NCI-H2126; first compound 0.04 µM) of 0.994, a relative viability (NCI-H2126; first compound 0.1265 µM) of 0.99 and a relative viability (NCI-H2126; first compound 0.4 µM) of 1.02. It also gave a relative viability (NCI-H2126; first compound 1.265 µM) of 0.995, a relative viability (NCI-H2126; first compound 4 µM) of 1.07 and a relative viability (HARA; first compound 0.04 µM) of 0.41. The relative viability (HARA; first compound 0.1265 µM) was 0.473, the relative viability (HARA; first compound 0.4 µM) was 0.173 and the relative viability (HARA; first compound 1.265 µM) was 0.246. For the same compound, the relative viability (HARA; first compound 4 µM) was 0.34, the relative viability (NCI-H650; first compound 0.04 µM) was 1.03 and the relative viability (NCI-H650; first compound 0.1265 µM) was 0.916. It also gave a relative viability (NCI-H650; first compound 0.4 µM) of 0.937, a relative viability (NCI-H650; first compound 1.265 µM) of 0.883 and a relative viability (NCI-H650; first compound 4 µM) of 0.907. It also gave a relative viability (LU99A; first compound 0.04 µM) of 0.351, a relative viability (LU99A; first compound 0.1265 µM) of 0.442 and a relative viability (LU99A; first compound 0.4 µM) of 0.345. For the same compound, the relative viability (LU99A; first compound 1.265 µM) was 0.258, the relative viability (LU99A; first compound 4 µM) was 0.287 and the relative viability (NCI-H522; first compound 0.04 µM) was 0.848. It also gave a relative viability (NCI-H522; first compound 0.1265 µM) of 0.794, a relative viability (NCI-H522; first compound 0.4 µM) of 0.777 and a relative viability (NCI-H522; first compound 1.265 µM) of 0.74. The relative viability (NCI-H522; first compound 4 µM) was 0.808, the relative viability (NCI-H2347; first compound 0.04 µM) was 0.776 and the relative viability (NCI-H2347; first compound 0.1265 µM) was 0.932. The relative viability (NCI-H2347; first compound 0.4 µM) was 0.901, the relative viability (NCI-H2347; first compound 1.265 µM) was 0.521 and the relative viability (NCI-H2347; first compound 4 µM) was 0.769. The relative viability (HCC-78; first compound 0.04 µM) was 0.566, the relative viability (HCC-78; first compound 0.1265 µM) was 0.633 and the relative viability (HCC-78; first compound 0.4 µM) was 0.59. The relative viability (HCC-78; first compound 1.265 µM) was 0.562, the relative viability (HCC-78; first compound 4 µM) was 0.547 and the relative viability (NCI-H2342; first compound 0.04 µM) was 0.453. For the same compound, the relative viability (NCI-H2342; first compound 0.1265 µM) was 0.537, the relative viability (NCI-H2342; first compound 0.4 µM) was 0.378 and the relative viability (NCI-H2342; first compound 1.265 µM) was 0.484. It also gave a relative viability (NCI-H2342; first compound 4 µM) of 0.45.
